Measured values taken from patent publication US20230277511A1, “RAPAMYCIN (RAPA) COMPOSITION AND PREPARATION METHOD THEREOF” (priority 2020, published 2023).

Tested on: AS model mice (ApoE−/− mice)
Experiment: Therapeutic effect on AS in AS model mice (plaque area)
Assay type: in vivo
Settings: 1.5 mg/kg intraperitoneally every two days for 3 months, mean±SD, FIG. 10
Description: Animal: Apolipoprotein gene-knockout mice (ApoE−/− mice) each with a weight of 18 g to 25 g were purchased from Peking University Laboratory Animal Center.
Construction of AS model mice: The mice were raised to be 8 weeks old in an SPF-grade environment (room temperature: 23° C., relative humidity: 65%, and 12 h light-dark cycle) and then fed with a high-fat feed for 12 weeks to obtain the AS model mice, and then each of the AS model mice was administered. Blood vessels were collected and stained, and a proportion of a plaque area was calculated according to the following formula: AA:AA=P/PO. The data were expressed by mean±standard deviation (SD). The t-test was adopted for statistical analysis. P<0.05 indicated a significant difference. All data were analyzed by software.
Grouping and administration regimen: Blank group: Each of the mice was intraperitoneally injected with 0.2 mL of NS every two days. Control group: Each of the mice was intraperitoneally injected with a RAPA solution diluted with NS to a desired concentration (administration amount: 1.5 mg/kg) every two days. Drug group: Each of the mice was intraperitoneally injected with the RAPA composition in Example 4 at 1.5 mg/kg every two days. The administration was conducted continuously for 3 months, during which state changes in mice were observed. […]

CO[C@H]1C[C@@H]2CC[C@@H](C)[C@@](O)(O2)C(=O)C(=O)N2CCCC[C@H]2C(=O)O[C@H]([C@H](C)C[C@@H]2CC[C@@H](O)[C@H](OC)C2)CC(=O)[C@H](C)/C=C(\C)[C@@H](O)[C@@H](OC)C(=O)[C@H](C)C[C@H](C)/C=C/C=C/C=C/1C [RAPA, rapamycin]
plaque area/total vascular area: 48.33%±2.851%
